Measurements as given in the supplement of paper PMC13380429.

What was measured:
Vero E6 [1] = assay: relative viability EC50 (midpoint between 100% and the lowest measured viability); higher = less toxic; details: 72 h
HepG2 [2] = assay: as above; details: 72 h
Calu-3 [3] = assay: as above; details: 72 h
A549-ACE2 [4] = assay: phospholipidosis EC50; higher = less potent phospholipidosis inducer
[5] = tested on: A549-ACE2 infected with SARS-CoV-2; assay: SARS-CoV-2 infection rate relative to DMSO; higher = more infection; details: 24 h
A549-ACE2 [6] = assay: drug-induced phospholipidosis relative to tamoxifen; higher = more phospholipidosis
U2OS [7] = assay: cell viability relative to DMSO; higher = less toxic; details: 72 h
Vero E6 [8] = assay: as above; details: 72 h
HepG2 [9] = assay: as above; details: 72 h
Calu-3 [10] = assay: as above; details: 72 h
Caco-2 [11] = assay: as above; details: 72 h
[12] = tested on: A549-ACE2 infected with SARS-CoV-2; assay: morphology score (similarity to uninfected cells); higher = more like uninfected cells; details: 24 h
[13] = tested on: A549-ACE2 infected with SARS-CoV-2; assay: cell count relative to DMSO; higher = less toxic; details: 24 h
U2OS [14] = assay: drug sensitivity score (DSS) for viability; higher = more toxic; extreme values may be limits of the assay; details: 72 h
Vero E6 [15] = assay: as above; details: 72 h
HepG2 [16] = assay: as above; details: 72 h
Calu-3 [17] = assay: as above; details: 72 h
Caco-2 [18] = assay: as above; details: 72 h

OC(c1cc(C(F)(F)F)nc2c(C(F)(F)F)cccc12)C1CCCCN1 (stereo not drawn) [mefloquine]
Details	drug sensitivity score	relative viability EC50 [µM]
Caco-2 [18]	1.1	–
Calu-3 [3]	–	> 10
Calu-3 [17]	0.6	–
HepG2 [2]	–	2.21
HepG2 [16]	6.7	–
U2OS [14]	1.1	–
Vero E6 [1]	–	> 10
Vero E6 [15]	0.5	–

Details	SARS-CoV-2 infection rate [%]	cell count [%]	cell viability [%]	morphology score	phospholipidosis EC50 [µM]
A549-ACE2 [4], 24 h	–	–	–	–	1.57
A549-ACE2 [4], 48 h	–	–	–	–	2.78
A549-ACE2 [4], 72 h	–	–	–	–	3.29
Caco-2 [11], 1 nM	–	–	108	–	–
Caco-2 [11], 10 nM	–	–	103	–	–
Caco-2 [11], 100 nM	–	–	102	–	–
Caco-2 [11], 1000 nM	–	–	105	–	–
Caco-2 [11], 10000 nM	–	–	69.3	–	–
Calu-3 [10], 1 nM	–	–	110	–	–
Calu-3 [10], 10 nM	–	–	90.2	–	–
Calu-3 [10], 100 nM	–	–	105	–	–
Calu-3 [10], 1000 nM	–	–	103	–	–
Calu-3 [10], 10000 nM	–	–	76.9	–	–
HepG2 [9], 1 nM	–	–	98.1	–	–
HepG2 [9], 10 nM	–	–	89.9	–	–
HepG2 [9], 100 nM	–	–	98.9	–	–
HepG2 [9], 1000 nM	–	–	89.7	–	–
HepG2 [9], 10000 nM	–	–	10.8	–	–
U2OS [7], 1 nM	–	–	106	–	–
U2OS [7], 10 nM	–	–	99.6	–	–
U2OS [7], 100 nM	–	–	107	–	–
U2OS [7], 1000 nM	–	–	99.5	–	–
U2OS [7], 10000 nM	–	–	73	–	–
Vero E6 [8], 1 nM	–	–	101	–	–
Vero E6 [8], 10 nM	–	–	106	–	–
Vero E6 [8], 100 nM	–	–	102	–	–
Vero E6 [8], 1000 nM	–	–	103	–	–
Vero E6 [8], 10000 nM	–	–	78.7	–	–
[5], 0.1 µM	107	–	–	–	–
[5], 0.3 µM	94	–	–	–	–
[5], 1 µM	89	–	–	–	–
[5], 3 µM	32	–	–	–	–
[12], 0.1 µM	–	–	–	-0.29	–
[12], 0.3 µM	–	–	–	0.2	–
[12], 1 µM	–	–	–	0.27	–
[12], 3 µM	–	–	–	0.84	–
[13], 0.1 µM	–	98	–	–	–
[13], 0.3 µM	–	98	–	–	–
[13], 1 µM	–	108	–	–	–
[13], 3 µM	–	122	–	–	–

drug-induced phospholipidosis [%], A549-ACE2 [6]
Details	0.3 µM	0.833333 µM	3.33333 µM	6.66667 µM	10 µM
24 h	2.22	17.4	75	83.8	88.4
48 h	3.66	13	67.8	86.7	102
72 h	5.04	11.3	58.8	87.9	97.7
